Results published in ChEMBL document CHEMBL3046523, “Protection of protein carbonyl formation by quercetin in erythrocytes subjected to oxidative stress” (Med Chem Res, 2010).

Legend:
[1] = Antioxidant activity in plasma assessed as ABTS radical scavenging activity relative to trolox; format: functional, cell-free
Erythrocyte [2] = experiment: Antioxidant activity in Homo sapiens (human) erythrocytes assessed as protection against t-BHP-induced oxidative stress at 0.1 to 100 uM; format: functional, cell-based; conditions: TDE = time-dependent effect
Erythrocyte [3] = experiment: Antioxidant activity in Homo sapiens (human) erythrocytes assessed as protection against t-BHP-induced oxidative stress measured up to 180 min; format: functional, cell-based

## O=c1c(O)c(-c2ccc(O)c(O)c2)oc2cc(O)cc(O)c12
[1]
  fold change (FC): 6
Erythrocyte [2]
  Activity: tde
Erythrocyte [3]
  Activity: Dose-dependent effect
